Measured values: PMC3302888, “Small-Animal PET Imaging of Amyloid-Beta Plaques with [^11C]PiB and Its Multi-Modal Validation in an APP/PS1 Mouse Model of Alzheimer's Disease” (PLoS ONE, 2012)
Where “and” joins values, the source holds several entries; their conditions need not be identical. Identical values can stand only once. Like-named read-outs stand apart in the source and are kept apart here.

Experiments:
[1] = tested on: postmortem human brain tissue homogenate (temporal cortex); assay: Radioligand saturation binding assay with [^3H]PiB, human brain homogenate
Protocol: (§1) The frozen mouse hemi-forebrains (50 mg/ml) and human brain samples (100 mg/ml) for the radioligand binding assay were first prepared in tissue homogenization buffer (20 mM Tris base, 1 mM EDTA, 1 mM EGTA, cOmplete Protease Inhibitor Cocktail (Roche Applied Science, Mannheim, Germany)) using a 30 ml hand glass homogenizer (Dounce type, tight fit) (Sartorius Stedim Biotech, Göttingen, Germany) which was used for subsequent ELISA analysis. The stocks were then supplemented with 250 mM sucrose and stored at −70°C for later tracer binding analysis. All other tissue samples were processed for ELISA as reported by Willuweit et al.
(§2) All brain homogenates were diluted in PBE buffer (10 mM dibasic sodium phosphate, 1 mM EDTA, 10% EtOH) to a final concentration of 1000 µg/ml. Synthetic human Aβ1–40 fibrils (EZBioLab, Carmel, IN, USA) were prepared as described by Lockhart et al. (0.5 mg/ml, pH 7.4, 200 rpm at 37°C for 48 h) and were used as positive control at a final concentration of 10 µg/ml (Figure S8).
(§3) Nonspecific binding was determined in the presence of 3 µM unlabeled PiB (ABX, Radeberg, Germany) including 1 h preincubation. Each tissue sample was deployed on two 96-well cell culture plates (Greiner Bio-One, Frickenhausen, Germany) to a final reaction volume of 280 µl per well using 8-channel electronic pipettes (Mettler Toledo, Giessen, Germany) giving 24 octuples of data points per sample.
(§4) The bound and free fractions were seperated by vacuum filtration through 0.3% polyethyleneimine-pretreated GF/B glass filtermats (GE Healthcare/Whatman, Dassel, Germany) using a semi-automated Harvester 96 Mach II M (Tomtec, Hamden, CT, USA). A constant automated 5-cycle pulse-wash program (optimized for flow rate and volume) guaranteed stable harvesting with 1.2 ml PBE washing per well at 2 psi.
(§5) Filters were cut and incubated in Aquasafe300plus scintillator (Zinsser Analytic, Frankfurt, Germany) for 36 h before counting in a Wallac WinSpectral 1414 liquid scintillation counter (PerkinElmer, Rodgau, Germany).
(§6) The specific binding signal under these assay conditions was between 56% (human) and 91% (synthetic protein). Data were analyzed using GraphPad Prism version 5.0 d for Mac (GraphPad Software, La Jolla, CA, USA) to estimate the apparent dissociation constant (Kd), the maximal number of binding sites (Bmax) and the in vitro binding potential (BP) using the one-site and two-site global analysis models.
(§7) Division by Kd in nanomolar units directly results in BP.

[2] = tested on: mouse brain tissue homogenate (APP/PS1 hemi-forebrain); assay: Radioligand saturation binding assay with [^3H]PiB, mouse brain homogenate
Protocol: as §1, §2, §3, §4, §5, §6, §7

APP/PS1 mouse brain = tested on: APP/PS1 mouse brain; design: method as in PMID 16291932; conditions: very old hemizygous APP/PS1 animals; classical Scatchard analysis; cited from earlier work
human brain = tested on: human brain; design: method as in PMID 16291932; conditions: humans; cited from earlier work
Aβ plaques = assay: Small-animal PET of mouse brain with [^11C]PiB, cerebellum as reference region; type: in vivo; conditions: for BPND (MRTM2, Ichise et al., 2003) mean ± SD: neocortex target, cerebellum reference; for PET BPND neocortex: [^3H]PiB/[^11C]PiB cocktail, 30 min scan
From the text: Most of the small-animal PET data was acquired with a microPET FOCUS F120 scanner (Siemens Medical Solutions, Malvern, USA). In the combined multi-modal experiment PET data for the four animals was acquired with a docked Siemens Inveon PET/CT system (Siemens Medical Solutions, Knoxville, USA), [66], [67].
After induction of anesthesia and placement of the catheter systems, the animals were placed with their heads in the center of the field of view and were fixed in the scanner in prone head first position (HFP). At the beginning of the PET scanning procedure, a 9 min transmission scan (^68Ge rod source, Focus F120) or CT scan (Inveon) was performed in all animals.
[^11C]PiB was given via the catheter system intravenously in a slow bolus, followed by flushing with isotonic saline solution such that the total applied volume was 0.22±0.06 ml. The amount of injected activity was controlled real-time with registered prompts such that they ranged between 150000 to 200000 at the end of [^11C]PiB application, ensuring a dead time <5% at 30 min p.i.. The radioactivity in the syringe was measured immediately before and after injection with a Capintec CRC 15R (Capintec Inc, NJ, USA) dose calibrator. The time between measurements was 2 to 3 min.
Dynamic data acquisition was performed in 3D listmode for 30 or 60 min starting immediately with injection of the tracer. The emission data were normalized and corrected for decay and dead time. The resulting sinograms were reconstructed with FBP (filtered back-projection using a ramp filter with a cut-off at the Nyquist frequency) into 2, 3, 6, 12, 60 and 120 frames of equal length used for motion correction, ratio measurements and image production and 52 frames (24×10 s, 12×30 s, 10×120 s, 6×300 s) and 162 frames (120×1 s, 24×10 s, 8×30 s, 10×300 s) for time-activity-curve (TAC) generation. The image volume consisted of 128×128×95 voxels, with a size of 0.866×0.866×0.796 mm^3 per voxel for the Focus F120 scanner and 128×128×159 voxels, with a size of 0.776×0.776×0.796 mm^3 per voxel for the Inveon scanner.
To assess varying PiB retention of individual animals within the study collective and to verify the consistency of results, three quantification methods were used similar to Maeada et al.. First, [^11C]PiB uptake in the target region was divided by [^11C]PiB uptake in the cerebellum as measured in a static 10 min-frame (20–30 min). Second, the tissue ratio methods as proposed by Ito et al. were calculated. Third, the multilinear reference tissue model 2 (MRTM2, [45]) was fitted to cortex time-activity curves (TACs) (merged neocortex) after reduction of parameters by estimating individual efflux rate constants for [^11C]PiB from the reference region (k2′) with the MRTM [45] and four regional cortical time-activity curves.
Parametric images of [^11C]PiB retention (BPND maps (MRTM2)) were generated for four representative mice (Figure 2 and S1). For all analyses, the cerebellum was used as the reference region. To quantify the dynamic data, TACs with high initial time resolution (162 frames: 120×1 s, 24×10 s, 8×30 s, 10×300 s) were used (Figure 1).
Then, the radioactivity of the whole animal was measured in a Capintec dose calibrator, the animal killed by decapitation, the whole brain taken out and blood drawn for biodistribution and radioactivity measurement. One half of the brain was dissected for regional brain biodistribution (olfactory system, telencephalon, cerebellum and remaining brain structures (diencephalon, midbrain)) and deep-frozen immediately after gamma counting for later ELISA analysis of soluble and insoluble Aβx–40 and Aβx–42. […]

**Q.** For CNc1ccc(-c2nc3ccc(O)cc3s2)cc1 [[^3H]PiB], which “in vitro binding potential (BP)” value ([1]; huAD-0 (mild human AD, Cerad-0, Braak II), single binding site model) is on record?
**A.** ~0

**Q.** What about the “in vitro binding potential (BP)” value ([1]; huAD-C (severe human AD, Cerad-C, Braak V), single binding site model) of the same compound?
**A.** 38 and 38.2±4.7 and 38.2

**Q.** What about the “tracer concentration at which saturation binding was reached” value ([1]; huAD-C homogenate) of the same compound?
**A.** around 8 nM

**Q.** What about the Bmax ([1]; huAD-C homogenate, single binding site model) of the same compound?
**A.** 200 ± 12 fmol/mg

**Q.** And the Kd ([1]; huAD-C homogenate, single binding site model, read-out: Kd)?
**A.** 5.2 ± 0.9 nM

**Q.** What about the “Bmax of the high-affinity component” value ([1]; huAD-C, two site binding model) of the same compound?
**A.** 156.7 ± 7.3 fmol/mg

**Q.** What about the Kd ([1]; huAD-C, two site binding model, read-out: Kd of the high-affinity component) of the same compound?
**A.** 3.4 ± 1.4 nM

**Q.** And the “in vitro binding potential (BP)” value ([1]; huCTL (human control brain, Cerad-0, Braak I), single binding site model)?
**A.** ~0

**Q.** And the “in vitro binding potential (BP)” value ([2]; mouse control brain (msCTL), total binding not different to nonspecific binding)?
**A.** ~0

**Q.** What about the “in vitro binding potential (BP)” value ([2]; tg-old mouse brain tissue, single binding site model) of the same compound?
**A.** 11.9±0.9 and 11.9

**Q.** What about the “in vitro binding potential (BP)” value ([2]; tgtg-old mouse brain tissue, single binding site model) of the same compound?
**A.** 69 and 69.2±2.7 and 69.2

**Q.** What about the “Bmax of the high-affinity component” value ([2]; tgtg-old tissue, two site binding model) of the same compound?
**A.** 289.3 ± 123.9 fmol/mg

**Q.** And the Kd ([2]; tgtg-old tissue, two site binding model, read-out: Kd of the high-affinity component)?
**A.** 5.7 ± 4.1 nM

**Q.** What about the “in vitro binding potential (BP)” value ([2]; tgtg-young mouse brain tissue, single binding site model) of the same compound?
**A.** 14.3±0.9 and 14.3

**Q.** What about the “BP of the high-affinity component” value (APP/PS1 mouse brain) of the same compound?
**A.** 78

**Q.** And the “BP of high-affinity binding sites” value (human brain)?
**A.** 636

**Q.** For [11CH3]Nc1ccc(-c2nc3ccc(O)cc3s2)cc1 [[^11C]PiB, N-[^11C-methyl]-6-OH-BTA-1], which “BPND (MRTM2, Ichise et al., 2003) mean ± SD” value (Aβ plaques; ctl-old (N = 5)) is on record?
**A.** -0.08 ± 0.01

**Q.** And the “PET BPND neocortex” value (Aβ plaques; individual animals AD1, AD2 (tgtg-young, 9 months))?
**A.** 0.06

**Q.** What about the “PET BPND neocortex” value (Aβ plaques; individual animals CTL1, CTL2 (ctl-young)) of the same compound?
**A.** −0.06 and −0.07

**Q.** And the “BPND (MRTM2, Ichise et al., 2003) mean ± SD” value (Aβ plaques; tg-old (N = 5))?
**A.** 0.28 ± 0.06

**Q.** And the “BPND (MRTM2, Ichise et al., 2003) mean ± SD” value (Aβ plaques; tgtg-old (N = 7))?
**A.** 0.51 ± 0.13

**Q.** And the “BPND (MRTM2, Ichise et al., 2003) mean ± SD” value (Aβ plaques; tgtg-young (N = 5))?
**A.** 0.12 ± 0.04
